# Test results published in PMC10138506, “Design, Synthesis and Cytotoxic Activity of Novel Salicylaldehyde Hydrazones against Leukemia and Breast Cancer” (International Journal of Molecular Sciences, 2023).
# How the values were obtained:
# [1] = system: HL-60 cells; assay: MTT-dye reduction cytotoxicity assay, HL-60; assay type: cell-based, human
# Method: (§1) The research included four leukemic and three cancer human cell lines: HL-60 (acute myeloid leukemia), SKW-3 (KE-37 derivative) (T-cell leukemia), BV-173 and K-562 (chronic myeloid leukemia), MDA-MB-231 (ER-negative breast carcinoma), MCF-7 (ER-positive breast adenocarcinoma), and SaOS-2 (osteogenic sarcoma). The cells were provided from the German Collection of Microorganisms and Cell Cultures (DSMZ, Braunschweig, Germany). The solid tumor cell lines (MDA-MB-231, MCF-7, and SaOS-2) were incubated in 90% RPMI-1640 supplemented with 10% fetal bovine serum (FBS), non-essential amino acids, 1 mM sodium pyruvate, and […] human insulin as monolayer adherent cultures. The remaining cell lines were cultivated as a suspension culture in cell culture flasks at 37 °C in an incubator “BB 16-Function Line” Heraeus (Kendro, Hanau, Germany) with humidified atmosphere and 5% CO2 under standard conditions–RPMI-1640 liquid media supplemented with 10% FBS and 2 mM L-glutamine. The cells were kept in log phase by supplementing with fresh media after removing cell suspension aliquots two or three times each week.
# (§2) At least eight wells were used for each concentration.
# [2] = system: KE-37 cells; assay: MTT-dye reduction cytotoxicity assay, KE-37; assay type: cell-based, human
# Method: as §1, §2
# [3] = system: K-562 cells; assay: MTT-dye reduction cytotoxicity assay, K-562; assay type: cell-based, human
# Method: as §1, §2
# [4] = system: BV-173 cells; assay: MTT-dye reduction cytotoxicity assay, BV-173; assay type: cell-based, human
# Method: as §1, §2
# [5] = system: SaOS-2 cells; assay: MTT-dye reduction cytotoxicity assay, SaOS-2; assay type: cell-based, human
# Method: as §1, §2
# [6] = system: MDA-MB-231 cells; assay: MTT-dye reduction cytotoxicity assay, MDA-MB-231; assay type: cell-based, human
# Method: as §1, §2
# [7] = system: MCF-7 cells; assay: MTT-dye reduction cytotoxicity assay, MCF-7; assay type: cell-based, human
# Method: as §1, §2
# [8] = MTT-dye reduction cytotoxicity assay, normal HEK-293; details: human, HEK-293 cells (normal human embryonic kidney)
# Method: (§3) To assess the selectivity of the newly synthesized derivatives, they were tested on the normal human embryonic kidney HEK-293 cell line. The derived IC50 values were used to calculate the selectivity index according to the formula SI = IC50 (normal cells)/IC50 (cancer cells).
# The cytotoxic activity of the examined substances was determined using Mossman’s MTT [3-(4,5-dimethylthiazol-2-yl)-2,5-diphenyltetrazolium bromide] dye reduction assay. The approach is based on the reduction of the yellow tetrazolium salt MTT to a violet formazan in live cells via mitochondrial succinate dehydrogenase. In brief, exponentially developing cells were seeded at a density of 1 × 10^5 cells per ml in 96-well flat-bottomed microplates (100 μL/well), and after 24 h of incubation at 37 °C, they were treated to varied doses of the tested substances for 72 h. At least eight wells were used for each concentration. Following the incubation with the test compounds, aliquots of 10 μL MTT solution (10 mg/mL in PBS) were applied to each well. The microplates were then incubated at 37 °C for 4 h before the MTT-formazan crystals were dissolved with 100 μL/well 5% HCOOH in 2-propanol. The MTT-formazan absorbance was measured at 580 nm using a microprocessor-controlled microplate reader (Labexim LMR-1).
# The cell survival data were standardized as a percentage of the untreated control (set as 100% viability). The biological data were processed statistically using Student’s t-test, where values were considered statistically significant at p ≤ 0.05. The corresponding IC50 values were obtained to allow quantitative merit for the assessment of the relative potencies of the compounds under investigation. Each data point represents the arithmetic mean ± standard deviation (sd) of at least eight independent experiments.
# [9] = system: HL-60, KE-37, K-562, BV-173, SaOS-2, MDA-MB-231, MCF-7 cell lines; assay: Average over the cancer cell lines tested (LE, SI); assay type: cell-based, human; details: average over seven cancer cell lines
# Method: as §3
# The training set of salicylaldehyde hydrazones contained 11 compounds synthesized and tested before in our Lab. Their anticancer activities were measured and expressed as IC50 values on the following cell lines: HL-60, KE-37, K-562, BV-173, SaOS-2, MDA-MB-231, and MCF-7. For the purposes of SAR analysis, the IC50 values were converted in p-units (−logIC50) and ligand efficiencies (LEs) were calculated according to the formula: LE = pIC50/n, where n is the count of non-hydrogen atoms in the molecule.
# [10] = SI = IC50 (HEK-293)/IC50 (cancer cells)
# [11] = compound 13 versus benzoyl analog
smiles,measurement,setting,value
"COc1ccc(C=NNC(=O)c2ccc(O)cc2)c(O)c1 [Compound 13, 4-methoxysalicylaldehyde-4-hydroxybenzoylhydrazone]",IC50,"[1]; Homo sapiens, HL-60, 72 h treatment, read-out: IC50 exp, HL-60",8.9 ± 2.47 µM
same,SI (selectivity index) HL-60,[1]; [10],6
same,IC50,"[2]; Homo sapiens, KE-37, 72 h treatment, read-out: IC50 exp, KE-37",10.8 ± 2.81 µM
same,SI (selectivity index) KE-37,[2]; [10],5
same,IC50,"[3]; Homo sapiens, K562, 72 h treatment, read-out: IC50 exp, K-562",8.75 ± 1.29 µM
same,SI (selectivity index) K-562,[3]; [10],6
same,"reduction of cytotoxicity by hydroxy group in the benzoyl ring, K-562",[3]; [11],292 fold
same,IC50,"[4]; Homo sapiens, BV-173, 72 h treatment, read-out: IC50 exp, BV-173",3.88 ± 1.16 µM
same,SI (selectivity index) BV-173,[4]; [10],15
same,"reduction of cytotoxicity by hydroxy group in the benzoyl ring, BV-173",[4]; [11],3 fold
same,IC50,"[5]; Homo sapiens, SAOS-2, 72 h treatment, read-out: IC50 exp, SaOS-2",26 ± 3.65 µM
same,SI (selectivity index) SaOS-2,[5]; [10],2
same,"reduction of cytotoxicity by hydroxy group in the benzoyl ring, sarcomic cells",[5]; [11],15.5 fold
same,IC50,"[6]; Homo sapiens, MDA-MB-231, 72 h treatment, read-out: IC50 exp, MDA-MB-231",2900 ± 320 nM
same,SI (selectivity index) MDA-MB-231,[6]; [10],20
same,"reduction of cytotoxicity by hydroxy group in the benzoyl ring, MDA-MB-231",[6]; [11],1.25 fold
same,IC50,"[7]; Homo sapiens, MCF7, 72 h treatment, read-out: IC50 exp, MCF-7",1380 ± 80 nM
same,SI (selectivity index) MCF-7,[7]; [10],41
same,"reduction of cytotoxicity by hydroxy group in the benzoyl ring, MCF-7",[7]; [11],6 fold
same,IC50 at 72 h,[8],56.7 ± 4.35 µM
same,average SI,[9],14
same,melting point,,216 to 217 °C
